Laboratory results reported in ChEMBL document CHEMBL3885881, “DrugMatrix”.

Organism: Rattus norvegicus
Experiment: DrugMatrix - Regimen: Daily Repeat
Type: toxicity, organism-based, Sprague-Dawley
Parameters: regimen Daily Repeat, gender Male, age 6-8 weeks
Conditions: in vivo, sc, 0.4 mg/kg, route subcutaneous, dose level Low, […]; for ABSOLUTE BASOPHIL / ABSOLUTE EOSINOPHIL / ABSOLUTE LYMPHOCYTE / ABSOLUTE MONOCYTE / ABSOLUTE SEGMENTED NEUTROPHIL / BASOPHIL / EOSINOPHIL / ERYTHROCYTE COUNT / HEMATOCRIT / HEMOGLOBIN / LEUKOCYTE COUNT / LYMPHOCYTE / MEAN CORPUSCULAR HEMOGLOBIN / MEAN CORPUSCULAR HEMOGLOBIN CONCENTRATION / MEAN CORPUSCULAR VOLUME / MONOCYTE / NEUTROPHIL / NUCLEATED RED BLOOD CELLS / PLATELET COUNT: tissue Blood; for ALANINE AMINOTRANSFERASE / ALBUMIN / ALKALINE PHOSPHATASE / ASPARTATE AMINOTRANSFERASE / BLOOD UREA NITROGEN / CARBON DIOXIDE / CHLORIDE / CHOLESTEROL / CREATINE PHOSPHOKINASE / CREATININE / GLUCOSE / LACTATE DEHYDROGENASE / LIPASE / PHOSPHORUS / POTASSIUM / SODIUM / TOTAL BILIRUBIN / TOTAL PROTEIN / URIC ACID: tissue Plasma

COc1cc([C@@H]2c3cc4c(cc3[C@H](O)[C@H]3COC(=O)[C@H]23)OCO4)cc(OC)c1OC [PODOFILOX]
ABSOLUTE BASOPHIL (72 h, time 3 day): 0 CELLS/uL
ABSOLUTE EOSINOPHIL (72 h, time 3 day): 46.67 CELLS/uL
ABSOLUTE LYMPHOCYTE (72 h, time 3 day): 10326.67 CELLS/uL
ABSOLUTE MONOCYTE (72 h, time 3 day): 246 CELLS/uL
ABSOLUTE SEGMENTED NEUTROPHIL (72 h, time 3 day): 1114 CELLS/uL
BASOPHIL (72 h, time 3 day): 0%
EOSINOPHIL (72 h, time 3 day): 0.33%
ERYTHROCYTE COUNT (72 h, time 3 day): 5.36 x10E6/uL
HEMATOCRIT (72 h, time 3 day): 33.43%
HEMOGLOBIN (72 h, time 3 day): 12.37 G/DL
LEUKOCYTE COUNT (72 h, time 3 day): 11.73 x10E3/uL
LYMPHOCYTE (72 h, time 3 day): 88.33%
MEAN CORPUSCULAR HEMOGLOBIN (72 h, time 3 day): 23.07 pg
MEAN CORPUSCULAR HEMOGLOBIN CONCENTRATION (72 h, time 3 day): 37 G/DL
MEAN CORPUSCULAR VOLUME (72 h, time 3 day): 62.43 fL
MONOCYTE (72 h, time 3 day): 2%
NEUTROPHIL (72 h, time 3 day): 9.33%
NUCLEATED RED BLOOD CELLS (72 h, time 3 day): 0 /100WBC
PLATELET COUNT (72 h, time 3 day): 1280.67 x10E3/uL
ALANINE AMINOTRANSFERASE (72 h, time 3 day): 44.33 u/L
ALBUMIN (72 h, time 3 day): 3.33 G/DL
ALKALINE PHOSPHATASE (72 h, time 3 day): 320.67 u/L
ASPARTATE AMINOTRANSFERASE (72 h, time 3 day): 77.67 u/L
BLOOD UREA NITROGEN (72 h, time 3 day): 16.33 mg/dL
CARBON DIOXIDE (72 h, time 3 day): 27.33 mmol/L
CHLORIDE (72 h, time 3 day): 104.67 MEQ/L
CHOLESTEROL (72 h, time 3 day): 67.33 mg/dL
CREATINE PHOSPHOKINASE (72 h, time 3 day): 222.67 u/L
CREATININE (72 h, time 3 day): 0.2 mg/dL
GLUCOSE (72 h, time 3 day): 162 mg/dL
LACTATE DEHYDROGENASE (72 h, time 3 day): 146.67 u/L
LIPASE (72 h, time 3 day): 8 u/L
PHOSPHORUS (72 h, time 3 day): 12.87 mg/dL
POTASSIUM (72 h, time 3 day): 6.48 MEQ/L
SODIUM (72 h, time 3 day): 146.23 MEQ/L
TOTAL BILIRUBIN (72 h, time 3 day): 0.2 mg/dL
TOTAL PROTEIN (72 h, time 3 day): 5.23 G/DL
URIC ACID (72 h, time 3 day): 1.53 mg/dL
ABSOLUTE BASOPHIL (120 h, time 5 day): 0 CELLS/uL
ABSOLUTE EOSINOPHIL (120 h, time 5 day): 0 CELLS/uL
ABSOLUTE LYMPHOCYTE (120 h, time 5 day): 4413.33 CELLS/uL
ABSOLUTE MONOCYTE (120 h, time 5 day): 17.67 CELLS/uL
ABSOLUTE SEGMENTED NEUTROPHIL (120 h, time 5 day): 1569 CELLS/uL
BASOPHIL (120 h, time 5 day): 0%
EOSINOPHIL (120 h, time 5 day): 0%
ERYTHROCYTE COUNT (120 h, time 5 day): 5.41 x10E6/uL
HEMATOCRIT (120 h, time 5 day): 33.67%
HEMOGLOBIN (120 h, time 5 day): 12.57 G/DL
LEUKOCYTE COUNT (120 h, time 5 day): 6 x10E3/uL
LYMPHOCYTE (120 h, time 5 day): 73.67%
MEAN CORPUSCULAR HEMOGLOBIN (120 h, time 5 day): 23.23 pg
MEAN CORPUSCULAR HEMOGLOBIN CONCENTRATION (120 h, time 5 day): 37.33 G/DL
MEAN CORPUSCULAR VOLUME (120 h, time 5 day): 62.3 fL
MONOCYTE (120 h, time 5 day): 0.33%
NEUTROPHIL (120 h, time 5 day): 26%
NUCLEATED RED BLOOD CELLS (120 h, time 5 day): 0.67 /100WBC
PLATELET COUNT (120 h, time 5 day): 1853.33 x10E3/uL
ALANINE AMINOTRANSFERASE (120 h, time 5 day): 44.33 u/L
ALBUMIN (120 h, time 5 day): 4.03 G/DL
ALKALINE PHOSPHATASE (120 h, time 5 day): 296.33 u/L
ASPARTATE AMINOTRANSFERASE (120 h, time 5 day): 117 u/L
BLOOD UREA NITROGEN (120 h, time 5 day): 19.33 mg/dL
CARBON DIOXIDE (120 h, time 5 day): 26 mmol/L
CHLORIDE (120 h, time 5 day): 105.67 MEQ/L
CHOLESTEROL (120 h, time 5 day): 82.67 mg/dL
CREATINE PHOSPHOKINASE (120 h, time 5 day): 843.33 u/L
CREATININE (120 h, time 5 day): 0.2 mg/dL
GLUCOSE (120 h, time 5 day): 187.33 mg/dL
LACTATE DEHYDROGENASE (120 h, time 5 day): 167.67 u/L
LIPASE (120 h, time 5 day): 8.67 u/L
PHOSPHORUS (120 h, time 5 day): 11.4 mg/dL
POTASSIUM (120 h, time 5 day): 6.97 MEQ/L
SODIUM (120 h, time 5 day): 148.4 MEQ/L
TOTAL BILIRUBIN (120 h, time 5 day): 0.1 mg/dL
TOTAL PROTEIN (120 h, time 5 day): 6.7 G/DL
URIC ACID (120 h, time 5 day): 2.73 mg/dL
